Laboratory results taken from patent US10428080B2, “TBK/IKK inhibitor compounds and uses thereof” (Merck Patent GmbH, priority 2015, dated 2019).
Structures can show the parent of a compound that is named as a salt. Where two headings read alike, the source gives them in different places.

Key:
[1] = test system: phosphorylation of the IRF-3 protein in MDA-MB-468 cells; assay: pIRF3 immunocytochemistry cell based assay
How it was run: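 After 2 h stimulation with Poly(I:C) (10 ug/ml), following 1 h compound pre-treatment (10-point, 3-fold dilution, top 10 uM), MDA-MB-468 cells were fixed and stained with anti-pIRF3 antibody. pIRF3 fluorescence was normalized to PI staining or cell count on an Acumen cytometer. IC50 curves were derived from this.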

IKKε = target: T1, IKKε (Homo sapiens, UniProt Q14164); assay: IKKe Biochemical Assay; settings: read-out: IKKε IC50
T1 sequence (Q14164 1-716): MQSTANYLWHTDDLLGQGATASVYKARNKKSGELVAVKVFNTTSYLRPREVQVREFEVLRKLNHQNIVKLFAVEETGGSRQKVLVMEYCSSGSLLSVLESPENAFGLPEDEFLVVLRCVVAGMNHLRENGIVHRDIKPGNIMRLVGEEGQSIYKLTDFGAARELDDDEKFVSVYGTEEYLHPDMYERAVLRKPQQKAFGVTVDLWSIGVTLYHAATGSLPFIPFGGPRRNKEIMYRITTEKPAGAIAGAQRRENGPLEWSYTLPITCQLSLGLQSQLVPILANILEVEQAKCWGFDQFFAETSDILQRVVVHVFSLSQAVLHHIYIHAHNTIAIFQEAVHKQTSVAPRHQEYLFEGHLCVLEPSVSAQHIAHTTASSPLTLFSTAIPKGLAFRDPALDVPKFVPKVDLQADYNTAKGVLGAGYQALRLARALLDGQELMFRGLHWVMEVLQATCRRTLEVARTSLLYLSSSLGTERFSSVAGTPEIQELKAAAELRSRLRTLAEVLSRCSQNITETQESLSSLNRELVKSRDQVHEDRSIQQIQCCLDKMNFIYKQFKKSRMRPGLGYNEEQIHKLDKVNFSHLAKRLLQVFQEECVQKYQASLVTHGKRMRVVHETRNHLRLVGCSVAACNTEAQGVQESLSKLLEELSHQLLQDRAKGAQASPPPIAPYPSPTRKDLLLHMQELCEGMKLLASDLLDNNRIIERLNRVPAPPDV
How it was run: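 Activity was measured as mobility-shift separation of phosphorylated from unphosphorylated substrate on a LabChip EZ Reader. Compound was titrated from 30 uM final in 10 points, 1:4 steps, with 1% DMSO, and enzyme plus substrate reacted 90 min at 25° C before stop buffer. Control wells held 10 uM staurosporine.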

TBK1 = target: T2, TBK1 (Homo sapiens, UniProt Q9UHD2); assay: TBK Biochemical Assay; settings: read-out: TBK1 IC50
T2 sequence (Q9UHD2 1-729): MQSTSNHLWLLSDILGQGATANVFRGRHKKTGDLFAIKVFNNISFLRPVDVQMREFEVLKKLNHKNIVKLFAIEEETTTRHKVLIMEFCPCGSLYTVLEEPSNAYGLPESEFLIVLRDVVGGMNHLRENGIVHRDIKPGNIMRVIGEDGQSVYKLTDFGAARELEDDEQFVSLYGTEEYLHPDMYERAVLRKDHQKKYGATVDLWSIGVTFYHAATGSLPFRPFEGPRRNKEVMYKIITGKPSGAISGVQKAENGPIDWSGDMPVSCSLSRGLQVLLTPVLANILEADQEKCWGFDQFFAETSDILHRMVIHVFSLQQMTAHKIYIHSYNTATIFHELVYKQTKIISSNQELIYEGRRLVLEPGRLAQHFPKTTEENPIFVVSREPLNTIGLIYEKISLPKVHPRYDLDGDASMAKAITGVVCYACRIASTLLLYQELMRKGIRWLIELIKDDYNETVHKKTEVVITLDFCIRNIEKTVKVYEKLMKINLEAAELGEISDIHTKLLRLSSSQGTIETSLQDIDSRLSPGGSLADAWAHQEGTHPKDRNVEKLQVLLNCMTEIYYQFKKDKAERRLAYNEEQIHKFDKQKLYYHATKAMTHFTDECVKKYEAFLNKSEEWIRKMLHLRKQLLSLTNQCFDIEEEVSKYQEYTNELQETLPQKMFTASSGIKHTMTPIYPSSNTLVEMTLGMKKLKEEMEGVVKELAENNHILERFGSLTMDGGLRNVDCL
How it was run: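 Caliper LabChip mobility-shift readout of substrate and product after 90 min of TBK1 reaction at 25° C and stop-buffer addition. Compounds tested in 1:4 serial dilution over 10 points from 30 uM final at 1% DMSO; staurosporine 10 uM final defines full inhibition.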

[2] = Homo sapiens, MDA-MB-468 cells, Poly(I:C) stimulation, read-out: pIRF3 IC50

| Compound | IC50 [1, 2] [nM] | IC50 (IKKε) [nM] | IC50 (TBK1) [nM] | IC50 ([1]; MDA-MB-468 cells, Poly(I:C) stimulation, read-out: pIRF3 IC50) [nM] | IC50 ([1]; Homo sapiens, MDA-MB-468, read-out: pIRF3 IC50) [nM] |
| --- | --- | --- | --- | --- | --- |
| COc1cc(C(=O)N2CCC(CO)C2)ccc1-c1cc2nccc(-c3ccc(NC4CCOCC4)c(C#N)c3)c2o1 (stereo not drawn) [Compound 91, 5-{2-[4-(3-Hydroxymethyl-pyrrolidine-1-carbonyl)-2-methoxy-phenyl]-furo[3,2-b]pyridin-7-yl}-2-(tetrahydro-pyran-4-ylamino)-benzonitrile] | 100 to 1000 | < 100 | < 100 |  |  |
| COc1cc(C(=O)N(C)C(C)(C)CO)ccc1-c1cc2nccc(-c3ccc(OC4CCOCC4)c(C#N)c3)c2o1 [Compound 480, 4-{7-[3-Cyano-4-(tetrahydro-pyran-4-yloxy)-phenyl]-furo[3,2-b]pyridin-2-yl}-N-(2-hydroxy-1,1-dimethyl-ethyl)-3-methoxy-N-methyl-benzamide] | 100 to 1000 | < 100 | < 100 |  |  |
| COc1cc(C(=O)NC2CCOC2)ccc1-c1cc2nccc(-c3ccc(NC4CCOCC4)c(C#N)c3)c2o1 (stereo not drawn) [Compound 117, 4-{7-[3-Cyano-4-(tetrahydro-pyran-4-ylamino)-phenyl]-furo[3,2-b]pyridin-2-yl}-3-methoxy-N-(tetrahydro-furan-3-yl)-benzamide] | 100 to 1000 | < 100 | < 100 |  |  |
| COc1cc(C(=O)NOC2COC2)ccc1-c1cc2nccc(-c3ccc(OC4CCOCC4)c(C#N)c3)c2o1 [Compound 80, 4-{7-[3-Cyano-4-(tetrahydro-pyran-4-yloxy)-phenyl]-furo[3,2-b]pyridin-2-yl}-3-methoxy-N-(oxetan-3-yloxy)-benzamide] | 100 to 1000 | < 100 | < 100 |  |  |
| COc1cc(C(=O)N[C@H]2CCCC[C@H]2O)ccc1-c1cc2nccc(-c3ccc(OC4CCOCC4)c(C#N)c3)c2o1 [Compound 476, 4-{7-[3-Cyano-4-(tetrahydro-pyran-4-yloxy)-phenyl]-furo[3,2-b]pyridin-2-yl}-N-((1S,2R)-2-hydroxy-cyclohexyl)-3-methoxy-benzamide] | 100 to 1000 | < 100 | < 100 |  |  |
| COc1cc(C(=O)N2CCC3(CCO3)CC2)ccc1-c1cc2nccc(-c3ccc(OC4CCOCC4)c(C#N)c3)c2o1 [Compound 3, 5-{2-[2-Methoxy-4-(1-oxa-7-aza-spiro[3.5]nonane-7-carbonyl)-phenyl]-furo[3,2-b]pyridin-7-yl}-2-(tetrahydro-pyran-4-yloxy)-benzonitrile] | 100 to 1000 | < 100 | < 100 |  |  |
| COc1cc(C(=O)N(C)C)ncc1-c1cc2nccc(-c3ccc(OC4CCOCC4)c(C#N)n3)c2o1 [Compound 387, 5-[7-[6-cyano-5-(oxan-4-yloxy)pyridin-2-yl]furo[3,2-b]pyridin-2-yl]-4-methoxy-N,N-dimethylpyridine-2-carboxamide hydrochloride] | 100 to 1000 | < 100 | < 100 |  |  |
| COc1cc(C(=O)N[C@@H]2CN3CCC2CC3)ncc1-c1cc2nccc(-c3ccc(N4CC[C@@H](F)C4)c(C#N)c3)c2o1 [Compound 445, 5-{7-[3-Cyano-4-((R)-3-fluoro-pyrrolidin-1-yl)-phenyl]-furo[3,2-b]pyridin-2-yl}-4-methoxy-pyridine-2-carboxylic acid (1-aza-bicyclo[2.20.2]oct-3-yl)-amide] | < 100 | < 100 | < 100 |  |  |
| CC1(O)CN(C(=O)c2ccc(-c3cc4nccc(-c5ccc(OC6CCOCC6)c(C#N)c5)c4o3)cc2)C1 [Compound 124, 5-{2-[4-(3-Hydroxy-3-methyl-azetidine-1-carbonyl)-phenyl]-furo[3,2-b]pyridin-7-yl}-2-(tetrahydro-pyran-4-yloxy)-benzonitrile] | 1000 to 5000 | < 100 | < 100 |  |  |
| COc1cc(C(=O)NC2CN3CCC2CC3)cnc1-c1cc2nccc(-c3ccc(N4CC[C@@H](F)C4)c(C#N)c3)c2o1 (stereo partly drawn) [Compound 442, N—(R)-1-Aza-bicyclo[2.20.2]oct-3-yl-6-{7-[3-cyano-4-((R)-3-fluoro-pyrrolidin-1-yl)-phenyl]-furo[3,2-b]pyridin-2-yl}-5-methoxy-nicotinamide] |  | < 100 | < 100 | 100 to 1000 |  |
| COc1cc(C(=O)N2CCC2)cnc1-c1cc2nccc(-c3ccc(OC4CCOCC4)c(C#N)c3)c2o1 [Compound 415, 5-(2-[5-[(azetidin-1-yl)carbonyl]-3-methoxypyridin-2-yl]furo[3,2-b]pyridin-7-yl)-2-(oxan-4-yloxy)benzonitrile] |  | < 100 | < 100 |  | 100 to 1000 |

More lines, main results first:

| IC50 [1, 2] [nM] | IC50 (IKKε) [nM] | IC50 (TBK1) [nM] | Compound | IC50 ([1]; MDA-MB-468 cells, Poly(I:C) stimulation, read-out: pIRF3 IC50) [nM] | IC50 ([1]; Homo sapiens, MDA-MB-468, read-out: pIRF3 IC50) [nM] |
| --- | --- | --- | --- | --- | --- |
| 100 to 1000 | < 100 | < 100 | COc1cc(C(=O)N(C)C)ccc1-c1cc2nccc(-c3ccc(OC4CCOC5(CC5)C4)c(C#N)c3)c2o1 (stereo not drawn) [Compound 290, 4-[7-(3-cyano-4-[4-oxaspiro[2.5]octan-7-yloxy]phenyl)furo[3,2-b]pyridin-2-yl]-3-methoxy-N,N-dimethylbenzamide] |  |  |
| 100 to 1000 | < 100 | 100 to 1000 | COc1cc(C(=O)N(C)C)ccc1-c1cc2nccc(-c3ccc(OC4CCNCC4)c(C#N)c3)c2o1 [Compound 158, 4-{7-[3-Cyano-4-(piperidin-4-yloxy)-phenyl]-furo[3,2-b]pyridin-2-yl}-3-methoxy-N,N-dimethyl-benzamide Hydrochloride] |  |  |
| 100 to 1000 | < 100 | < 100 | COc1cc(C(=O)N(C)C)ccc1-c1cc2nccc(-c3ccc(OCC4CCNCC4)c(C#N)c3)c2o1 [Compound 155, 4-{7-[3-Cyano-4-(piperidin-4-ylmethoxy)-phenyl]-furo[3,2-b]pyridin-2-yl}-3-methoxy-N,N-dimethyl-benzamide] |  |  |
| < 100 | < 100 | < 100 | COc1cc(C(=O)N2CC(N3CCCC3)C2)ccc1-c1cc2nccc(-c3ccc(OC4CCOCC4)c(C#N)c3)c2o1 [Compound 20, 5-{2-[2-Methoxy-4-(3-pyrrolidin-1-yl-azetidine-1-carbonyl)-phenyl]-furo[3,2-b]pyridin-7-yl}-2-(tetrahydro-pyran-4-yloxy)-benzonitrile] |  |  |
| 100 to 1000 | < 100 | < 100 | COc1cc(C(=O)N(C)C)ccc1-c1cc2nccc(-c3ccc(OC4CCOC4)c(C#N)c3)c2o1 (stereo not drawn) [Compound 90, 4-{7-[3-Cyano-4-(tetrahydro-furan-3-yloxy)-phenyl]-furo[3,2-b]pyridin-2-yl}-3-methoxy-N,N-dimethyl-benzamide] |  |  |
| < 100 | < 100 | < 100 | COc1cc(C(=O)N(C)CCS(C)(=O)=O)ccc1-c1cc2nccc(-c3ccc(OC4CCOCC4)c(C#N)c3)c2o1 [Compound 483, 4-{7-[3-Cyano-4-(tetrahydro-pyran-4-yloxy)-phenyl]-furo[3,2-b]pyridin-2-yl}-N-(2-methanesulfonyl-ethyl)-3-methoxy-N-methyl-benzamide] |  |  |
| 100 to 1000 | < 100 | < 100 | CN(C)C(=O)c1ccc(-c2cc3nccc(-c4ccc(N5CC[C@@H](F)C5)c(C#N)c4)c3o2)cc1 [Compound 120, 4-{7-[3-Cyano-4-((R)-3-fluoro-pyrrolidin-1-yl)-phenyl]-furo[3,2-b]pyridin-2-yl}-N,N-dimethyl-benzamide] |  |  |
